Data: patent publication US20140322145A1, “ANTIMICROBIAL COMPOSITION” (Rohm and Haas Company, priority 2011, published 2014)

Legend:
Type in all cases: cell-based
[1] = tested on: Escherichia coli (10536 strain); test: 15 seconds contact-time bacterial kill assay, microtitre plate, plate counts (Examples 1 and 3); settings: for MBC of antimicrobial alcohol: alcohol alone
Method: The efficacies of antimicrobial agents can be usefully compared by determining the Minimum Biocidal Concentration (MBC). The MBC is defined as the lowest absolute concentration of the particular active that provides complete kill (zero bacterial growth).
Antimicrobial efficacy is tested against a representative pathogenic bacterial organism, Gram negative Escherichia coli. Concentrations of actives are expressed in terms of the percentage weight/volume (% w/v) throughout Example 1.
An overnight culture of Escherichia coli (10536 strain) was prepared in 50 ml total volume of TSB broth, grown for ca. 18 hrs at 37° C. and shaken at 150 rpm. 1 ml of this overnight E. coli culture was transferred to 50 ml of fresh TSB broth and incubated at 37° C. at 150 rpm for ca. 4 hours. This culture was separated into equal volumes and centrifuged at 4000 rpm for 15 minutes, washed with sterile saline (0.85% NaCl), centrifuged once more and re-suspended in saline to give a final concentration of 0.8 OD620 equivalent to about 10^8 cells per milliliter for this particular organism. Here, OD620 indicates the absorbance of a sample in a cuvette of 1.0 cm path length at a wavelength of 620 nm. This bacterial stock was used for assaying against antimicrobial actives (in triplicate).
The following assay describes the testing of 8 materials using 6 dilutions across half of a 96-well micro titre plate (MTP). Using this approach it is possible to assay 16 actives (without replicates) with one full dilution plate, replicating this set up in two halves of the plate columns, 1-6 and 7-12.
1M solutions of the test actives were prepared in dimethylsulphoxide (DMSO).
Aliquots (270 μl) of the materials at 1.11 times the final concentration were dispensed into the wells of the MTP along one column (A1-H1). This MTP was labelled as the “Screening plate”.
In another MTP, labelled as the “Dilution plate”, 270 μl of D/E neutralising solution from DIFCO Composition was added to column 1. The composition of the neutralising solution was as follows: pancreatic digest of casein, 5.0 g/L; Yeast Extract, 2.5 g/L; Dextrose, 10 g/L, sodium thioglycollate, 1.0 g/L, sodium thiosulphate, 6.0 g/L; sodium bisulphite. 2.5 g/L; Polysorbate 80, 5.0 g/L; lecithin 7.0 g/L; bromocresol purple, 0.02 g/L with a pH in the range 7.6±0.2.
270 μl of tryptone diluent solution was added to all the remaining wells of the Dilution MTP (columns 2-6).
Bacterial stock (30 μl) was then added to the prepared 270 μl of the solution of actives in the Screening Plate and mixed, using a multichannel pipette with 8 tips to aspirate and dispense the same volume of bacterial stock in parallel to 8 wells in rows A-H. After a contact time of 15 seconds, the mixtures were quenched by transferring 30 μl volumes of the mixtures into the 270 μl DIE neutralising solution in the prepared dilution plate, using aspiration to mix. After exactly 5 minutes in the DIE neutralising solution, 30 μl volumes were transferred from column 1 to column 2 of the Dilution MTP and mixed, before transferring further 30 μl volumes from column 2 into column 3. This process was repeated serially diluting the bacteria across the plate to column 6.
30 μl volumes from each well in the Dilution MTP were transferred onto pre-labelled segment of Tryptone Soya Agar (TSA) plates starting from the lowest bacterial concentration (highest dilution, column 6) to the highest bacterial concentration (column 1). The TSA plates were allowed to stand for ca. 2 hours so that the 30 μl inocula spots could dry and the plates were then inverted and incubated overnight at 37° C. before enumerating the bacterial colonies at the labelled dilutions to determine the effects of the actives on bacterial growth.
Mean bacterial survival numbers NMBS (expressed in Log CFU/ml) are obtained by first determining the segment of the TSA plate where the number of bacterial colonies is countable. From the colony number in this segment, NMBS is calculated by the formula: […]

[2] = tested on: Escherichia coli (E. coli—ATCC #10536); test: Automated assessment of efficacy in surfactant base (Example 4); settings: for 15 second bactericidal efficacy in combination with thymol: at concentrations lower than their MBC in the same surfactant formulation; for MBC (minimum biocidal concentration): in 2.85% sodium cocoyl glycinate + 1.85% sodium lauroamphoacetate solution at pH 10
Method: In these examples, the efficacy of combinations of thymol and antimicrobial alcohols of the invention were tested in a surfactant cleansing formulation comprising 2.85% sodium cocoyl glycinate and 1.85% sodium lauroamphoacetate. This corresponds to a 50% in use dilution with water of a typical neat formulation containing 5.7% cocoyl glycinate and 3.7% % sodium lauroamphoacetate during hand washing. Solutions were prepared such that the concentrations of the surfactant components and test actives were 1.1 times the final desired concentration in order to allow for dilution with the bacterial inoculum in the test. The solutions were manually adjusted to pH 10.0 by dropwise addition of sodium hydroxide solution, as measured with a pH meter at ambient temperature. Solutions of the thymol and/or antimicrobial alcohols of the invention were prepared at a maximum of 24 hours before testing. The same thymol and antimicrobial alcohols were used as in Examples 1 and 3.
The efficacy of the combinations of the present invention was determined against the same bacterium as in Example 1, Escherichia coli (E. coli—ATCC #10536), at a concentration of approximately 1×10^8 bacteria per mL.
Tests were conducted using standard microtiter plate assays using an automated liquid handling system. 270 μl of the surfactant test solution was pipetted into each well of the microtitre plate (Nunc F Gamma Irradiated 96F untreated microtitre plates of clear polystyrene) and 30 μl of the bacterial suspension was then added. After exactly 15 seconds of bacterial exposure, a 30 μl volume of bacterial cells was withdrawn and transferred to 270 μl of D/E quench solution. After 5 minutes in the DIE quench, the optical density (OD) was measured for each plate in turn at two specific wavelengths (450 nm and 590 nm). These provide a dual check of antimicrobial activity, as the OD450 reading is specific for the yellow colour of DIE quench when bacterial growth is observed, whereas OD590 is specific for the initial purple colour of the DIE quench which is retained if no bacterial growth is observed. After the time zero OD measurements, plates were then incubated at 37° C. overnight (16 hours) before repeating the OD measurements. Delta OD values were calculated by subtracting […] at time=16 hours. Bacterial growth is observed as an increase in OD450 and a decrease in OD590. To identify antibacterially efficacious systems (those preventing appreciable bacterial growth after incubation), the following threshold changes in OD readings have been adopted: if (1). OD450 increases by less than 0.2 absorbance unit (AU) on incubation and (2). OD590 decreases by less than 0.35 AU on incubation. Conversely, where OD450 increases by more than 0.1 AU and OD590 decreases by more than 0.1 AU after incubation, corresponding to a colour shift from purple to yellow, the test system allows bacterial growth and is not deemed efficacious. Four replicate measurements in the same plate have been made for each test system. The number of replicate wells showing either bacterial growth or no growth is also readily assessed by eye by following the colour change. Thymol and terpineol were tested both alone and in combination for comparison purposes.
In each case, binary mixtures were assessed in the weight to weight ratio of thymol to antimicrobial alcohol of 1:2.5.

[3] = tested on: Escherichia coli (E. coli—ATCC #10536); test: High resolution MBC synergy assay in phosphate buffer containing 35% dipropylene glycol (Example 2); settings: complete kill in 15 seconds; other component 0
Method: In this Example, a wide range of combinations of chemicals was tested by conducting high resolution MBC assays of isocyclogeraniol in the presence of various concentrations of thymol. The materials were sourced in the same way as for Example 1. Synergy tests were conducted using standard microtiter plate assays with phosphate buffer containing 35% dipropylene glycol (DPG). […] The MBC plate was inoculated one column at a time with the test microorganism. An aliquot of the inoculated well was transferred at 15 seconds to a plate containing a neutralizing agent (D/E Neutralizing Broth), mixed and held for 5 minutes before being transferred to a growth plate containing trypticase soy broth (TSB). The TSB plate was incubated at 37° C. and read for the presence I absence of growth at 24 hours. […] This microorganism is representative of natural contaminants in many consumer and industrial applications.

[4] = Table 10, from the data in Table 9, 15 seconds

Row | Compound | MBC (minimum biocidal concentration) [1, 4] | MBC of antimicrobial alcohol ([1]; Table 11, 15 seconds) | 15 second bactericidal efficacy in combination with thymol [2] | MBC (minimum biocidal concentration) [2] | MBC (minimum biocidal concentration) ([1]; Table 4, lowest concentration giving zero bacterial survival after 15 seconds, upper boundaries) | MBC of antimicrobial alcohol ([1]; Table 5, 15 seconds) | MBC of component alone (MBCA, MBCB) [3] | MBC (minimum biocidal concentration) ([2]; listed as Isocyclogeraniol) | MBC of thymol ([1]; Table 5, thymol alone, 15 seconds) | MBC of thymol ([1]; Table 11, MBC of thymol of Example 1)
1 | CC1CCC(CO)C(C)C1 (centres unmarked) [dihydrofloralol, (2,4-dimethylcyclohexyl)methanol] | 0.5 % w/v | 0.5 % (w/v) | complete kill in all 4 replicates | 0.5 % w/v |  |  |  |  |  | 
2 | CC1=CCC(CO)C(C)C1 (centres unmarked) [floralol, (4,6-dimethylcyclohex-3-en-1-yl)methanol] | 0.3 % w/v | 0.3 % (w/v) | complete kill in all 4 replicates | 0.4 % w/v |  |  |  |  |  | 
3 | CC1=CC(C)C(CO)C(C)C1 (centres unmarked) [isocyclogeraniol, (2,4,6-trimethylcyclohex-3-en-1-yl)methanol] |  |  | complete kill in all 4 replicates | higher than the highest tested concentrations | 0.3 % w/v | 0.3 % (w/v) | 0.6 weight % | >0.5 % w/v |  | 
4 | Cc1ccc(C(C)C)c(O)c1 [thymol, 2-isopropyl-5-methylphenol] |  |  |  |  |  |  | 0.5 weight % |  | 0.05 % (w/v) | 0.05 % (w/v)
